Data set [1] concerns TIA mice. Put plainly: TIA mouse model of liver and biliary disease resembling PBC/PSC, H&E liver histology and survival. It counts as in vivo. The following applies: for inflammation at the interface between the hepatic parenchyma and the portal tracts (interface hepatitis) / proliferation of bile ductules (bile ductular proliferation) / periportal and biliary inflammation: TIA mice at 11 weeks, H&E liver sections, vs untreated TIA mice; for inflammation at the interface between the hepatic parenchyma and the portal tracts (interface hepatitis): 0.03% in chow for 7 weeks; for proliferation of bile ductules (bile ductular proliferation) / periportal and biliary inflammation: 0.03% in chow from 4 weeks of age. The source says:
The following Examples describe the utilization of a murine model of liver damage to assess the effectiveness of a treatment regimen based on the oral administration of remogliflozin etabonate. The murine model is based on mice that are deficient for the expression of tumor necrosis factor alpha (“TNFα”), interleukin 10 (“IL-10”), and activation-induced cytidine deaminase (“AICDA”). As the mice are deficient in TNF, IL-10, and AICDA, they are referred to, herein, as “TIA” mice. These liver outcomes in these animals also closely resemble that of PBC.
Moreover, as AICDA is required for immunoglobulin (“Ig”) class switching, TIA mice lack IgG and IgA, a phenotype analogous to humans with hyper-IgM syndrome. Therefore, with the combination of AICDA deficiency with the risk factors associated with TNFα and IL-10 deficiencies, TIA mice also develop liver and biliary inflammation reminiscent of PSC and PBC symptoms in humans. Accordingly, the TIA model is useful for investigating mechanisms that act early in PBC pathogenesis, as well as treatments that can prevent progression to PBC and PSC.
Example 1. Orally-administered remogliflozin etabonate reduces inflammatory cell infiltration, bile ductular proliferation, and interface hepatitis in TIA mice. TIA mice were created by first breeding TNFα knock out (“KO”) C57BL/6 mice, (strain B6.129S-Tnf^tm1Gkl/J, stock #005540, Jackson Laboratories, Bar Harbor, Me.) with IL-10 KO mice (strain B10.129P2(B6)-IL10^tm1Cgn/J, Stock No. 002251, Jackson Laboratories) to produce a population of mice that were deficient in TNFα and IL-10. Because mice with a TNFα −/− and IL10 −/− genotype spontaneously develop inflammatory bowel disease (“IBD”) (Hale 2012), a condition associated with poor breeding success (Nagy 2016), the mice needed for further breeding to generate an AICDA population, were generated by breeding offspring with a TNFα and IL10+/− genotype with AICDA −/− mice, which were obtained from Dr. Tasuku Honjo (Muramatsu 2000)), to produce a population of TNFα −/−, IL10 −/−, and AICDA+/−(“TI-hetA”) males and females. In turn, TI-hetA pairs were bred to generate populations that were 25% TIA mice, and 50% non-colitis-susceptible TI-hetA littermates that could be used as control populations. All populations were exposed to the same environment from birth. The mice were housed in polycarbonate micro-isolator cages, in individually ventilated racks, under barrier conditions that excluded all known pathogens, including Helicobacter pylori and Norovirus. Mice had ad libitum access to water, and to a standard diet (PicoLab Mouse Diet 20/5058, LabDiet, St. Louis, Mo., USA).
At four (4) weeks of age, TIA (40) and TI-hetA (22) mice were randomized into experimental groups that received either a standard diet (20 TIA and 12 het), or a standard diet formulated 0.03% remogliflozin etabonate (20 TIA and 10 het) (Avolynt Inc., USA). The mice were maintained on this diet for seven (7) weeks. Body weights were obtained three (3) times, weekly, to assess the general health of mice, and to track the development of inflammatory bowel disease (IBD). Glycosuria in the experimental groups was assessed by applying freshly voided urine directly to the glucose test patch on an Accutest® URS-10 urinary reagent test strips (Jant Pharmaceutical Corp., Encino, Calif., USA). Mice were humanely euthanized before reaching the experimental endpoint, of eleven (11) weeks of age, if they lost >15% body weight, or developed rectal prolapse.
To characterize biliary lesions in TIA mice at the end of the 7 week treatment period, liver tissue was obtained from the remogliflozin-treated, and untreated groups, for histologic examination. The excised liver tissue was fixed in Carnoy's fixative solution, and processed into paraffin blocks. The paraffin blocks were sectioned, and stained with Hematoxylin and eosin (H&E) for pathologic analysis. The H&E-stained sections were scored by an American Board of Pathology-certified pathologist. […]

Data set [2] can be described thus: Plasma remogliflozin after oral immediate release (IR) tablet. Type of data set: in vivo. The source says:
Oral dosage forms according to the invention are typically tablets or capsules. Tablets can be obtained by direct compression of the mixed components of a dosage form, including a therapeutically effective amount of an SGLT2 inhibitor, and selected excipients, like cellulose derivatives, metacrylates, chitosan, carboxymethylstarch, or mixtures thereof. For example, a compressed tablet according to the invention, can be prepared by granulating a SGLT2 inhibitor with microcrystalline cellulose and croscarmellose sodium with a water and povidone solution. The resulting granules are dried, milled, and then blended with mannitol, microcrystalline cellulose, and croscarmellose. The blend is lubricated with magnesium stearate and compressed. […] Indeed, Tmax for an IR remogliflozin etabonate oral dosage form according to the invention occurs at 1 hour, or less, following ingestion of the dosage form by a subject.

Entries after “also recorded” stand apart in the source; their conditions may differ.

A word on the Tmax: it is the time at which the peak concentration occurs. On to `CCOC(=O)OC[C@H]1O[C@@H](Oc2nn(C(C)C)c(C)c2Cc2ccc(OC(C)C)cc2)[C@H](O)[C@@H](O)[C@@H]1O` [remogliflozin etabonate], for which, in data set [1] (Remo group versus control group, 7 week study), the “number of TIA mice that required early euthanasia” value is listed as “no statistical difference”. In data set [1] (Remo group versus control group, not statistically significant), the early death result is reported as “trend toward decreased early death”. In addition, in data set [1], the “inflammation at the interface between the hepatic parenchyma and the portal tracts (interface hepatitis)” value is “reduces”; the “proliferation of bile ductules (bile ductular proliferation)” value (“proliferation of bile ductules” below) is reported as “reduces”. In data set [1] (listed as remogliflozin), the “inflammation at the interface between the hepatic parenchyma and the portal tracts (interface hepatitis)” value is on record as “less inflammation”; the “periportal and biliary inflammation” value is listed as “less inflammation”; the “proliferation of bile ductules” value is “less proliferation of bile ductiles”. In data set [1] (listed as Remo), the “periportal and biliary inflammation” value is “decrease in periportal and biliary inflammation”; the “proliferation of bile ductules” value is “decrease in proliferation of bile ductules”. Further, in data set [1] (TIA mice, 0.03% remogliflozin etabonate in diet for 7 weeks from 4 weeks of age, vs standard diet), the “development and progression of liver and biliary disease” value was “prevents the progression of PBC disease pathology; also recorded: markedly less development and progression of liver and biliary disease”. The inflammatory cell infiltration result in data set [1] (TIA mice, oral, 0.03% in diet for 7 weeks) is “reduces”. Further, the Tmax in data set [2] (IR remogliflozin etabonate oral dosage form, following ingestion) is at most 1 h. For the same compound, the “remogliflozin plasma concentration after clearance” value in data set [2] (compressed IR tablet, 350 mg remogliflozin etabonate, oral, after 3 hrs) is 40 ng/mL. In data set [2] (compressed IR tablet, 350 mg remogliflozin etabonate, oral, at 1 hr post-ingestion), the “maximum remogliflozin plasma concentration (Cmax)” value is recorded as 160 ng/mL.

These data come from patent publication US20220387467A1, “USE OF SGLT2 INHIBITORS TO TREAT PRIMARY BILLIARY CHOLANGITIS” (AVOLYNT, priority 2019, published 2022).
